Test results reported in article PMC7815716, “Mechanistic basis of breast cancer resistance protein inhibition by new indeno[1,2-b]indoles” (Scientific Reports, 2021).
Values joined by “and” are separate entries in the source; they are usually repeats but may differ in a detail not shown here. Equal values may be shown once. Read-outs that look alike come from different tables or passages of the source.

Key:
[1] = molecular target: T1, ABCG2 (Homo sapiens, UniProt Q9UNQ0); assay: Inhibition of ABCG2-mediated mitoxantrone efflux (flow cytometry); assay type: cell-based; parameters: expressed in transfected cells; host or cells: HEK293; conditions: for inhibition at 30 min: human, probe mitoxantrone (10 µM), from IC50 fitted curves, HEK293-ABCG2, mitoxantrone, 100% = Ko143 0.5 µM, read-out: IMAX (%) ± SD, maximal inhibition percentage; for TR, therapeutic ratio (IG50/IC50): ratio between IG50 and IC50 values
T1 sequence (Q9UNQ0 1-655): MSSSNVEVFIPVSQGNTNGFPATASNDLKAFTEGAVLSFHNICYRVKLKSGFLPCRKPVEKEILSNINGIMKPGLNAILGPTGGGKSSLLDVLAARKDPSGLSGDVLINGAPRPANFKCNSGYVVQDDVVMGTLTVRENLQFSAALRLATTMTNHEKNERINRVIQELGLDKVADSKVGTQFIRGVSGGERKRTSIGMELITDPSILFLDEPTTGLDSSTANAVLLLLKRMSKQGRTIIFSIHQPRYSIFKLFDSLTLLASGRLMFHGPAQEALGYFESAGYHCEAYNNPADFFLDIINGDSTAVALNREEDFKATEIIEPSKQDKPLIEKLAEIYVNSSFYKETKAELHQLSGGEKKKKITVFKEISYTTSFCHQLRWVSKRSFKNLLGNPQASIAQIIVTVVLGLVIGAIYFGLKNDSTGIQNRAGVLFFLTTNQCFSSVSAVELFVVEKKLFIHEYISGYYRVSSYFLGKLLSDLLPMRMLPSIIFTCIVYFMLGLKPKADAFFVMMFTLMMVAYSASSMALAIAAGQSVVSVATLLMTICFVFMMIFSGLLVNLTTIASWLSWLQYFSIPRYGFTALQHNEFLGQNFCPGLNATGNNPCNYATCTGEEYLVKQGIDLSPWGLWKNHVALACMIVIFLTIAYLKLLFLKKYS
Method: ABCG2 inhibition assays were carried out on HEK293 WT and HEK293-ABCG2 cells. Cells were seeded at the density of 1 × 10^5 cells/well in 24 well culture plates and incubated for 48 h at 37 °C under 5% CO2. Cells were treated with compounds and 10 μM of mitoxantrone for 30 min at 37 °C and 5% CO2. After incubation the cells were washed with PBS, trypsinized and resuspended in ice cold PBS. The intracellular drug fluorescence was monitored with a FACS Calibur cytometer (Becton Dickinson) using the FL4 channel, with at least 10,000 events collected. The maximal fluorescence (taken as 100%) was determined with the difference between the mean fluorescence of HEK-ABCG2 cells incubated with 0.5 μM Ko143 (ABCG2 reference inhibitor) or by using the HEK293 WT cell line as a control and cells without inhibitor (mitoxantrone alone). The percent of inhibition was determined as previously described. For bimodulation assays the cells were concomitantly treated with 10 μM of one or two combined inhibitors under similar conditions as described previously. For washing assays, cells were treated with 10 μM concentrations of compounds for 30 min. Then, the medium with the inhibitor was removed and the cells were washed with PBS and incubated only with culture medium for different periods of time (0.5 and 3 h). After incubation, cells were exposed to 5 µM mitoxantrone for 30 min, and then analyzed by flow cytometry. The percentage of transport inhibition was calculated by the following equation: %Inhibition=C-S/I-S×100 where “C” corresponds to the intracellular fluorescence of cells in the presence of the tested compounds and substrate (mitoxantrone to ABCG2, Rhodamine 123 to ABCB1 and calcein to ABCC1), “S” corresponds to the intracellular fluorescence of cells in the presence of substrate alone, and “I” corresponds to the intracellular fluorescence of cells in the presence of the substrate and reference inhibitor (Ko143 to ABCG2, GF120918 to ABCB1 and verapamil to ABCC1).

[2] = molecular target: T1, ABCG2; conditions: previously published data, cited from earlier work
[3] = tested on: HEK293 WT cells; assay: SN-38 cytotoxicity in control cells, MTT assay; assay type: cell-based, human
Method: Cell viability was evaluated with a 3-(4,5-dimethylthiazol-2-yl)-2,5-diphenyltetrazolium bromide (MTT) colorimetric assay. HEK293 WT and HEK293-ABCG2 cells were seeded into 96-well culture plates at a 1.5 × 10^4 cells/well density. After overnight incubation, the cells were treated with various concentrations of compounds (0–100 µM) for 72 h at 37 °C under 5% CO2. […] Sensitization experiments were also carried out on H460 and H460MX20 cells. For these experiments, H460 and H460MX20 cells were seeded into 96-well culture plates at 1.0 × 10^4 cells/well density. […] After the treatment, the culture medium was removed and 100 μL of a 0.5 mg.mL^−1 MTT solution was added. Cells were then incubated for 4 h at 37 °C under 5% CO2. The formazan crystals were dissolved with a solution of DMSO/ethanol (1:1) and the absorbance was measured at 570 nm using a Multiscan FC microplate reader (Thermo Scientific). The results were expressed as percentage of viable cells versus control cells (0.1% DMSO, v/v) taken as 100%.

[4] = tested on: ABCG2; conditions: cited from earlier work
[5] = HEK293-ABCG2 cells, mitoxantrone 10 µM, 30 min, read-out: IC50 (µM) ± SD, inhibition of ABCG2-mediated mitoxantrone efflux

| Structure (SMILES) | IC50 [1, 5] | inhibition at 30 min ([1]; HEK293-ABCG2 cells) | TR, therapeutic ratio (IG50/IC50) [1] | melting point | other results |
| --- | --- | --- | --- | --- | --- |
| COc1ccccc1CCn1c2c(c3c1-c1c(OCC=C(C)C)cccc1C3=O)C(=O)CCC2 [5k, 5-(2-Methoxyphenethyl)-4-(3-methylbut-2-enyloxy)-5,6,7,8-hexahydroindeno[1,2-b]indole-9,10-dione] | 0.92 ± 0.1 µM | 116 ± 2.36% | 22.85 |  |  |
| COc1ccccc1CCn1c2c(c3c1-c1ccccc1C3=O)C(=O)CCC2 [p4j] |  |  |  |  | TR, therapeutic ratio (IG50/IC50) [2]: 130.00 |
| COc1ccccc1CCn1c2c(c3c1-c1cccc(O)c1C3=O)C(=O)CCC2 [5h, 1-Hydroxy-5-(2-methoxyphenethyl)-5,6,7,8-tetrahydroindeno[1,2-b]indole-9,10-dione] | 0.42 ± 0.07 µM | 69.6 ± 1.14% | 57.21 | 173 °C |  |
| COc1cccc(CCn2c3c(c4c2-c2ccccc2C4=O)C(=O)CCC3)c1 [p4k] |  |  |  |  | TR, therapeutic ratio (IG50/IC50) [2]: 41.00 |
| CC(C)=CCOc1cccc2c1-c1c(c3c(n1CCc1ccccc1)CC(C)CC3=O)C2=O (stereo not drawn) [5n] | 4.09 ± 0.56 µM | 133 ± 3.35% | 5.26 |  |  |
| CC1CC(=O)c2c3c(n(CCc4ccccc4)c2C1)-c1cccc(O)c1C3=O (stereo not drawn) [5f, 1-Hydroxy-7-Methyl-5-phenethyl-5,6,7,8-tetrahydroindeno[1,2-b]indole-9,10-dione] | 0.18 ± 0.02 µM | 48.4 ± 0.8% | 153.24 | 246 °C |  |
| COc1ccc2[nH]cc(CCn3c4c(c5c3-c3ccccc3C5=O)C(=O)CCC4)c2c1 [5c, 5-(2-(5-Methoxy-1H-indol-3-yl)ethyl)-5,6,7,8-tetrahydroindeno[1,2-b]indole-9,10-dione] | 0.65 ± 0.03 µM | 60 ± 4.04% | 56.41 | 279 °C |  |
| COc1ccccc1CCn1c2c(c3c1-c1ccccc1C3=O)C(=O)CC(C)C2 (stereo not drawn) [5a, 5-(2-Methoxyphenethyl)-7-methyl-5,6,7,8-tetrahydroindeno[1,2-b]indole-9,10-dione] | 0.25 ± 0.01 µM | 72.5 ± 3.72% | > 393.60 | 204 °C |  |
| CC1CC(=O)c2c3c(n(CCc4ccccc4)c2C1)-c1ccccc1C3=O (stereo not drawn) [p4h] |  |  |  |  | TR, therapeutic ratio (IG50/IC50) [2]: > 435.00 |
| CCc1c2c(nc3ccc(O)cc13)-c1cc3c(c(=O)n1C2)COC(=O)[C@]3(O)CC [SN-38] |  |  |  |  | FR, fold reversal ([3]; SN-38 alone (reference)): 1.00; IC50 ([3]; SN-38 alone, 72 h, read-out: IG50 (SN-38 nM ± SD)): 8.24 nM and 7.53 nM and 10 nM and 7.58 nM |
| COc1ccc2c3c([nH]c2c1)[C@H](CC(C)C)N1C(=O)[C@H](CCC(=O)OC(C)(C)C)NC(=O)[C@@H]1C3 [Ko143] |  |  |  |  | Effect on the ATPase activity of ABCG2 [4]: inhibit the ATPase activity |
| COc1cccc(CCn2c3c(c4c2-c2cc(O)ccc2C4=O)C(=O)CCC3)c1 [5d, 3-Hydroxy-5-(3-methoxyphenethyl)-5,6,7,8-tetrahydroindeno[1,2-b]indole-9,10-dione] | 2.71 ± 0.14 µM | 68.5 ± 0.68% | 9.85 | 222 °C |  |
| COc1ccccc1CCn1c2c(c3c1-c1c(OCC=C(C)C)cccc1C3=O)C(=O)CC(C)C2 (stereo not drawn) [5m, 5-(2-Methoxyphenethyl)-7-methyl-4-((3-methylbut-2-enyl)oxy)-5,6,7,8-hexahydroindeno[1,2-b]indole-9,10-dione] | 0.19 ± 0.07 µM | 87.4 ± 2.46% | 66.23 |  |  |
| COc1cc2c(cc1OC)-c1c(c3c(O)cc(C)cc3n1CCc1ccccc1)C2=O [6e, 9-Hydroxy-2,3-dimethoxy-7-methyl-5-phenethylindeno[1,2-b]indol-10(5H)-one] |  | 66.8 ± 1.79% | 212.38 | 198 °C | IC50 [1]: 0.2 ± 0.04 µM |
| COc1cc2nc(N3CCN(C(=O)c4ccco4)CC3)nc(N)c2cc1OC [prazosin] |  |  |  |  | Stimulation of the ATPase activity of ABCG2 [4]: 100% |
| COc1ccccc1CCn1c2c(c3c1-c1cccc(OCC=C(C)C)c1C3=O)C(=O)CCC2 [5j, 5-(2-Methoxyphenethyl)-1-(3-methylbut-2-enyloxy)-5,6,7,8-tetrahydroindeno[1,2-b]indole-9,10-dione] | 0.48 ± 0.08 µM | 85.6 ± 2.59% | 32.86 | 118 °C |  |
| Cc1cc(O)c2c3c(n(CCc4ccccc4)c2c1)-c1ccccc1C3=O [p5h] |  |  |  |  | TR, therapeutic ratio (IG50/IC50) [2]: 360.00; IC50 ([2]; read-out: IC50 (µM) ± SD, inhibition of ABCG2-mediated mitoxantrone efflux): 0.15 ± 0.01 µM |
| CC1CC(=O)c2c3c(n(CCc4ccccc4)c2C1)-c1c(O)cccc1C3=O (stereo not drawn) [5g, 4-Hydroxy-7-methyl-5-phenethyl-5,6,7,8-tetrahydroindeno[1,2-b]indole-9,10-dione] | 0.44 ± 0.03 µM | 65.2 ± 0.94% | 58.79 | 283 °C |  |
| COc1ccccc1CCn1c2c(c3c1-c1cccc(OCC=C(C)C)c1C3=O)C(=O)CC(C)C2 (stereo not drawn) [5l, 5-(2-Methoxyphenethyl)-7-methyl-1-((3-methylbut-2-enyl)oxy)-5,6,7,8-tetrahydroindeno[1,2-b]indole-9,10-dione] | 0.24 ± 0.03 µM | 82.3 ± 3.44% | 59.72 |  |  |
| O=C1c2c(O)ccc(O)c2C(=O)c2c(NCCNCCO)ccc(NCCNCCO)c21 [mitoxantrone] |  |  |  |  | Stimulation of the ATPase activity of ABCG2 [4]: 40% |
| O=C1c2ccccc2-c2c1c1c(n2CCc2ccccc2)CCC(Cc2ccccc2)C1=O (stereo not drawn) [5b, 8-Benzyl-5-phenethyl-5,6,7,8-hexahydroindeno[1,2-b]indole-9,10-dione] | 0.45 ± 0.1 µM | 113 ± 3.67% | 28.10 |  |  |
